Consider 2 compounds from ChEMBL document CHEMBL1147904, “Probing length effects and mechanism of cell penetrating agents mounted on a polyproline helix scaffold” (Bioorg Med Chem Lett, 2007).

SMILES strings stand for the structures. Non-standard residues stand in square brackets, D forms with d. Residues, ends and D or L forms follow the SMILES beside them. *: point of attachment. X1 = O=C(O)c1cc(C(=O)*)ccc1-c1c2ccc(=O)cc-2oc2cc(O)ccc12; Propyl(3-guanidino) = N=C(N)NCCC*; Hyp = O=C(O)[C@@H]1C[C@@H](O)CN1; Isobutyl = CC(C)C*

The test system of data set [1] is MCF7. As to the kind of experiment: Cellular uptake in MCF7 cells assessed as mean fluorescence at 5 uM after 6 hrs. The data set is classed as ADME, cell-based. The conditions noted are these: human, mcf7, 6 h.
In data set [2] the test system is MCF7. Put plainly: Decrease in cellular uptake in MCF7 cells at 15 uM in presence of sodium azideafter 6 hrs by flow cytometry. The arrangement: scale not given: the % may be the effect or the level left. The conditions noted are these: human, mcf7, 6 h. The data set is classed as ADME, cell-based. In general terms: A flow cytometer gives signals particle by particle.

Data set [3] has as its system MCF7. As to the kind of experiment: Cellular uptake in MCF7 cells assessed as mean fluorescence at 10 uM after 6 hrs. The conditions noted are these: human, mcf7, 6 h. The data set is classed as ADME, cell-based.
Data set [4] is described as follows: Cytotoxicity against MCF7 cells assessed as cell viability at 15 uM after 24 hrs by flow cytometry. It counts as cell-based. Conditions: human, read-out: Activity; call rule not given here.
Data set [5] deals with MCF7. As to the kind of experiment: Cellular uptake in MCF7 cells assessed as mean fluorescence at 15 uM after 6 hrs. The data set is classed as ADME, cell-based. Conditions: human, mcf7, 6 h.
The test system of data set [6] is MCF7. As to the kind of experiment: Cellular uptake in MCF7 cells assessed as mean fluorescence at 1 uM after 6 hrs. Conditions: human, mcf7, 6 h. The data set is classed as ADME, cell-based.
Data set [7] has as its system MCF7. Put plainly: Decrease in cellular uptake in MCF7 cells at 15 uM at 4 degC after 6 hrs. The data set is classed as ADME, cell-based. The arrangement: scale not given: the % may be the effect or the level left. The conditions noted are these: human, mcf7, 6 h.
Data set [8] has as its system MCF7. Put plainly: Decrease in cellular uptake in MCF7 cells at 15 uM at 37 degC after 6 hrs. The data set is classed as ADME, cell-based. On the set-up: scale not given: the % may be the effect or the level left. The conditions noted are these: human, mcf7, 6 h.

Regarding `CC(C)CO[C@@H]1C[C@@H](C(=O)N2C[C@H](OCCCNC(=N)N)C[C@H]2C(=O)N2C[C@H](OCCCNC(=N)N)C[C@H]2C(=O)N2C[C@H](OCC(C)C)C[C@H]2C(=O)N2C[C@H](OCCCNC(=N)N)C[C@H]2C(=O)N2C[C@H](OCCCNC(=N)N)C[C@H]2C(=O)N2C[C@H](OCC(C)C)C[C@H]2C(=O)N2C[C@H](OCCCNC(=N)N)C[C@H]2C(=O)N2C[C@H](OCCCNC(=N)N)C[C@H]2C(=O)N2C[C@H](OCC(C)C)C[C@H]2C(N)=O)N(C(=O)CNC(=O)c2ccc(-c3c4ccc(=O)cc-4oc4cc(O)ccc34)c(C(=O)O)c2)C1` (X1-G[Hyp](Isobutyl)[Hyp](Propyl(3-guanidino))[Hyp](Propyl(3-guanidino))[Hyp](Isobutyl)[Hyp](Propyl(3-guanidino))[Hyp](Propyl(3-guanidino))[Hyp](Isobutyl)[Hyp](Propyl(3-guanidino))[Hyp](Propyl(3-guanidino))[Hyp](Isobutyl)-NH2), the Activity was 7 a.u in data set [1]; “Not Active” in data set [2]; 15 a.u in data set [3]; 63 a.u in data set [5]; 2 a.u in data set [6]; 82% in data set [7]. The Activity in data set [8] worked out at 89%. Further, the viability at 24 h, 15 µM in data set [4] is 80%.
On to `CC(C)CO[C@@H]1C[C@@H](C(=O)N2C[C@H](OCCCNC(=N)N)C[C@H]2C(=O)N2C[C@H](OCCCNC(=N)N)C[C@H]2C(=O)N2C[C@H](OCC(C)C)C[C@H]2C(=O)N2C[C@H](OCCCNC(=N)N)C[C@H]2C(=O)N2C[C@H](OCCCNC(=N)N)C[C@H]2C(=O)N2C[C@H](OCC(C)C)C[C@H]2C(=O)N2C[C@H](OCCCNC(=N)N)C[C@H]2C(=O)N2C[C@H](OCCCNC(=N)N)C[C@H]2C(=O)N2C[C@H](OCC(C)C)C[C@H]2C(=O)N2C[C@H](OCCCNC(=N)N)C[C@H]2C(=O)N2C[C@H](OCCCNC(=N)N)C[C@H]2C(=O)N2C[C@H](OCC(C)C)C[C@H]2C(N)=O)N(C(=O)CNC(=O)c2ccc(-c3c4ccc(=O)cc-4oc4cc(O)ccc34)c(C(=O)O)c2)C1` (X1-G[Hyp](Isobutyl)[Hyp](Propyl(3-guanidino))[Hyp](Propyl(3-guanidino))[Hyp](Isobutyl)[Hyp](Propyl(3-guanidino))[Hyp](Propyl(3-guanidino))[Hyp](Isobutyl)[Hyp](Propyl(3-guanidino))[Hyp](Propyl(3-guanidino))[Hyp](Isobutyl)[Hyp](Propyl(3-guanidino))[Hyp](Propyl(3-guanidino))[Hyp](Isobutyl)-NH2), for which the Activity in data set [1] is 30 a.u; in data set [2], 19%; in data set [3], 177 a.u; in data set [5], 420 a.u; in data set [6], 4 a.u; in data set [7], 82%. In addition, in data set [8], the Activity turned out to be 89%. Also, the viability at 24 h, 15 µM in data set [4] worked out at 80%.
